Experimental findings from ChEMBL document CHEMBL1201862, “PubChem BioAssay data set” (2004) are described below.

Test systems include CAKI-1; HCC 2998; HCT-116; HCT-15; HOP-92; MCF7; MDA-MB-435; NCI-H460; NCI-H522; OVCAR-3; OVCAR-4; OVCAR-8; RXF 393; SK-OV-3; SNB-75; T47D; TK-10; MOLT-4; MDA-N.
Common to all, as to experiment: NCI tumour cell line growth inhibition, 48 h

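Grown in 96-well plates, cells were treated for 48 hours with each compound at five concentrations. Insufficient inhibition: endpoint recorded as highest concentration tested. GI50 = concentration required for 50% inhibition of growth.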 The source made the active and inactive calls. Rule as the data show it: active = GI50 up to about 1.1 µM and inactive = higher. Square brackets hold non-standard residues; d marks the D form. Peptide text beside a SMILES is read from it. * marks the point of attachment. NMeV = CN[C@H](C(=O)O)C(C)C; X28 = COc1ccc(CN*)c(OC)c1; Octanoyl = CCCCCCCC(=O)*; dNMeA = CN[C@H](C)C(=O)O

Take `CCOC(=O)c1c2c(n(-c3ccc(OC)cc3)c1C)C(=O)C(=O)c1ccccc1-2`: the GI50 is 1.42 µM (inactive) in the assay on CAKI-1; 1.73 µM (inactive) in the assay with HCC 2998; 1.33 µM (inactive) with HCT-116; 3.65 µM in the assay on HCT-15; 1.85 µM (inactive) in the assay with HOP-92; 0.693 µM (active) in the assay with MCF7. Also, the GI50 in the assay with MDA-MB-435 was 0.19 µM (active); in the assay on NCI-H460 it was 1.43 µM (inactive); in the assay with NCI-H522, 2.71 µM (inactive); in the assay on OVCAR-3, 0.419 µM (active); in the assay on OVCAR-4 it was 0.624 µM (active); in the assay with OVCAR-8, 0.687 µM (active). Moreover, the GI50 in the assay on RXF 393 is 1.84 µM (inactive); in the assay on SK-OV-3, 2.38 µM (inactive); in the assay with SNB-75, 2.16 µM (inactive); in the assay on T47D, 1.01 µM (active); in the assay on TK-10, 1.72 µM (inactive).
For the compound `CC(C)(C)/C(O)=C\c1nc2cc(F)c(F)cc2[nH]c1=O`, the GI50 is > 100 µM (inactive) with CAKI-1; > 100 µM (inactive) in the assay with HCC 2998; > 100 µM (inactive) in the assay with HCT-116; above 100 µM in the assay on HCT-15; > 100 µM (inactive) in the assay on HOP-92; > 100 µM (inactive) with MCF7. Moreover, the GI50 with MDA-MB-435 was > 100 µM (inactive); in the assay on MOLT-4 it was 48.4 µM (inactive); with NCI-H460 it was > 100 µM (inactive); in the assay on OVCAR-4 it was > 100 µM (inactive); in the assay on OVCAR-8 it was > 100 µM (inactive); with RXF 393, > 100 µM (inactive). The GI50 in the assay with SK-OV-3, in the assay on SNB-75, in the assay on T47D and in the assay on TK-10 was > 100 µM (inactive) each time.
Take `CCOC(=O)C1C(=O)C(=O)N2CCc3c([nH]c4ccccc34)C12` (configuration not stated): the GI50 with CAKI-1 was > 100 µM (inactive); with HCC 2998 it was > 100 µM (inactive); in the assay with HCT-116, > 100 µM (inactive); in the assay on HCT-15 it was above 100 µM; in the assay with HOP-92, > 100 µM (inactive); in the assay on MOLT-4, > 100 µM (inactive). Also, the GI50 with NCI-H522, in the assay on OVCAR-3, in the assay on OVCAR-4, with OVCAR-8, with RXF 393 and in the assay on SK-OV-3 was > 100 µM (inactive) throughout. Further, the GI50 in the assay on TK-10 was > 100 µM (inactive).
Turning to `CCOC(=O)NC(=O)c1cn(CCN2CCNCC2)c(=O)[nH]c1=O`, the GI50 in the assay with CAKI-1 was > 100 µM (inactive); in the assay with HCT-116, > 100 µM (inactive); in the assay with HCT-15, above 100 µM; in the assay with HOP-92, > 100 µM (inactive); with MOLT-4, > 100 µM (inactive); in the assay on NCI-H460 it was > 100 µM (inactive). Further, the GI50 with NCI-H522, in the assay on OVCAR-3, in the assay on OVCAR-4, in the assay on OVCAR-8, in the assay on RXF 393 and in the assay with SK-OV-3 was > 100 µM (inactive) in each case. For the same compound, in the assay on TK-10, the GI50 was > 100 µM (inactive).
Regarding `O=C(O)C12CCC(CC1=O)C2` (configuration not stated), the GI50 in the assay with CAKI-1 was > 100 µM (inactive); with HCT-15, above 100 µM; with HOP-92 it was > 100 µM (inactive); in the assay with MCF7, > 100 µM (inactive); in the assay with MDA-MB-435, > 100 µM (inactive); in the assay on MOLT-4, > 100 µM (inactive). The GI50 in the assay with NCI-H460, in the assay with NCI-H522, in the assay on OVCAR-3, in the assay with OVCAR-4, with OVCAR-8 and in the assay on SK-OV-3 was > 100 µM (inactive) throughout. Further, the GI50 in the assay on SNB-75, in the assay on T47D and in the assay with TK-10 was > 100 µM (inactive) throughout.
Turning to `CC1CC(N2CCOCC2)=Nc2ccccc2N1C` (configuration not stated), the GI50 is > 100 µM (inactive) in the assay with CAKI-1; > 100 µM (inactive) with HCT-116; above 100 µM in the assay with HCT-15; > 100 µM (inactive) in the assay on MDA-MB-435; > 100 µM (inactive) in the assay with MDA-N; 95.5 µM (inactive) in the assay on MOLT-4. Also, the GI50 with NCI-H460 is > 100 µM (inactive); with NCI-H522, 98.9 µM (inactive); in the assay with OVCAR-3, > 100 µM (inactive); with OVCAR-4, > 100 µM (inactive); with OVCAR-8 it was > 100 µM (inactive); in the assay with RXF 393, > 100 µM (inactive). In addition, the GI50 in the assay with SK-OV-3 was > 100 µM (inactive); in the assay with SNB-75, 0.0392 µM (active); with TK-10, > 100 µM (inactive).
`CC(=O)OI1NC(=O)c2ccccc21`: the GI50 in the assay with HCT-116 is > 100 µM (inactive); in the assay on HCT-15 it was above 100 µM; with HOP-92 it was > 100 µM (inactive); in the assay on MCF7, 93.5 µM (inactive); in the assay on MDA-MB-435, > 100 µM (inactive); in the assay with MDA-N, > 100 µM (inactive). Also, the GI50 was > 100 µM (inactive) with MOLT-4; 80.2 µM (inactive) in the assay on NCI-H522; > 100 µM (inactive) in the assay with OVCAR-3; > 100 µM (inactive) in the assay with OVCAR-4; > 100 µM (inactive) with OVCAR-8; > 100 µM (inactive) in the assay on SK-OV-3. Besides, the GI50 with SNB-75 and in the assay with TK-10 was > 100 µM (inactive) each time.
For the compound `COC(=O)c1ccccc1/C=C1\Cc2cc(C)cc(C)c2C1=O`, the GI50 in the assay with HCC 2998 was > 100 µM (inactive); with HCT-116 it was > 100 µM (inactive); in the assay on HCT-15, above 100 µM; with MCF7, > 100 µM (inactive); in the assay on MDA-N, > 100 µM (inactive); with MOLT-4, > 100 µM (inactive). The GI50 is > 100 µM (inactive) with NCI-H460; 5.46 µM (inactive) in the assay with NCI-H522; > 100 µM (inactive) in the assay on OVCAR-3; > 100 µM (inactive) with OVCAR-8; > 100 µM (inactive) in the assay with RXF 393; 72.4 µM (inactive) in the assay on SNB-75. Moreover, the GI50 with T47D and with TK-10 was > 100 µM (inactive) each time.
As to `N#CC(C#N)=c1c2ccccc2c(=C(C#N)C#N)c2ccccc12`, the GI50 was 14.9 µM (inactive) in the assay with CAKI-1; 17.8 µM (inactive) in the assay with HCT-116; 43.3 µM in the assay on HCT-15; 32.9 µM (inactive) in the assay on HOP-92; 5.61 µM (inactive) in the assay on MCF7; 18.4 µM (inactive) in the assay with MDA-MB-435. Moreover, the GI50 in the assay with MDA-N was 18.7 µM (inactive); with MOLT-4, 7.76 µM (inactive); in the assay on NCI-H460, 42.2 µM (inactive); in the assay on OVCAR-3, 16.3 µM (inactive); with OVCAR-8 it was 20.1 µM (inactive); with SK-OV-3, 25.1 µM (inactive). Also, in the assay with SNB-75, the GI50 was 18.1 µM (inactive).
Turning to `CC(C)(C)C#COC(=O)c1ccccc1`, the GI50 was > 100 µM (inactive) with CAKI-1; > 100 µM (inactive) with HCC 2998; > 100 µM (inactive) with HCT-116; above 100 µM in the assay with HCT-15; > 100 µM (inactive) with MOLT-4; > 100 µM (inactive) with NCI-H460. Besides, the GI50 in the assay on NCI-H522, in the assay on OVCAR-3, in the assay on OVCAR-4, with OVCAR-8 and in the assay with SK-OV-3 was > 100 µM (inactive) throughout.
`O=C(CCCN1CCC(Nc2ccccc2)(c2nnnn2C2CCCCC2)CC1)c1ccc(F)cc1`: the GI50 in the assay with HCC 2998 is 3.29 µM (inactive); in the assay on HCT-116, 4.48 µM (inactive); in the assay with HCT-15, 8.28 µM; in the assay on MCF7, 2.28 µM (inactive); with MDA-MB-435 it was 6.62 µM (inactive); with MDA-N it was 5.28 µM (inactive). The GI50 in the assay on MOLT-4 was 14 µM (inactive); with NCI-H460, 8.65 µM (inactive); with NCI-H522, 6.55 µM (inactive); in the assay with OVCAR-3, 9.27 µM (inactive); in the assay with OVCAR-4 it was 6.34 µM (inactive); in the assay on OVCAR-8 it was 13.1 µM (inactive). The GI50 in the assay with RXF 393 is 9.64 µM (inactive); in the assay with SK-OV-3 it was 13.3 µM (inactive); in the assay on SNB-75, 10.2 µM (inactive); in the assay with TK-10, 12.9 µM (inactive).
In the case of `O=C(c1cc(Cl)ccc1Cl)N1CCN(c2ccc(Cl)c(Cl)c2)CC1`, the GI50 in the assay with CAKI-1 was 35.8 µM (inactive); with HCC 2998, 26.7 µM (inactive); in the assay on HCT-116, 21 µM (inactive); with HCT-15, 13.2 µM; in the assay with HOP-92, 54.2 µM (inactive); in the assay with MCF7, 8.67 µM (inactive). For the same compound, the GI50 is 38.1 µM (inactive) in the assay with MDA-N; 20.6 µM (inactive) in the assay on MOLT-4; 17 µM (inactive) in the assay on NCI-H460; 20.7 µM (inactive) in the assay with NCI-H522; 31.4 µM (inactive) in the assay on OVCAR-3; 51.5 µM (inactive) with OVCAR-4. For the same compound, the GI50 is 12.5 µM (inactive) in the assay with OVCAR-8; 15.4 µM (inactive) in the assay with RXF 393; 31.1 µM (inactive) with SNB-75; 2.45 µM (inactive) in the assay with T47D; 31.9 µM (inactive) in the assay with TK-10.
Consider `CCCCCCCC(=O)N[C@H](C(=O)N[C@H](C(=O)N(C)[C@H](C(=O)N1CCC[C@H]1C(=O)N(C)[C@H](C)C(=O)NCc1ccc(OC)cc1OC)C(C)C)C(C)C)C(C)C` (Octanoyl-VV[NMeV]P[dNMeA]-X28), for which the GI50 was 16.4 µM (inactive) with CAKI-1; 13.4 µM (inactive) with HCC 2998; 5.93 µM (inactive) in the assay on HCT-116; 21.5 µM in the assay on HCT-15; 7.6 µM (inactive) in the assay with HOP-92; 7.53 µM (inactive) with MCF7. The GI50 is 5.22 µM (inactive) in the assay with MDA-MB-435; 14.2 µM (inactive) with MOLT-4; 8.34 µM (inactive) in the assay with NCI-H460; 7.21 µM (inactive) in the assay on NCI-H522; 4.2 µM (inactive) with OVCAR-3; 6.14 µM (inactive) in the assay on OVCAR-4. Besides, the GI50 in the assay with OVCAR-8 was 5.58 µM (inactive); in the assay with RXF 393, 8.57 µM (inactive); in the assay on SK-OV-3, 28.9 µM (inactive); in the assay with SNB-75 it was 21.3 µM (inactive); with T47D, 4.29 µM (inactive); with TK-10 it was 22.3 µM (inactive).
